Experimental data taken from patent publication US20150087723A1, “MICROBIAL COMPOSITION” (Rohm and Haas Company, priority 2011, published 2015).
“And” between values parts separate entries of the source, which are not always exact repeats. Equal values may be shown once.

Columns and labels:
[1] = test system: Escherichia coli (E. coli—ATCC #10536); assay: Synergy test: high resolution MBC microtiter plate assay, phosphate buffer containing 35% dipropylene glycol, 15 seconds contact; assay type: cell-based; details: E. coli 10536; for SI (Synergy Index = Qa/QA + Qb/QB): at Qa and Qb, <1 synergy, 1 additivity, >1 antagonism
From the text: One measure of synergy is -the industrially accepted method described by Kull, F. C.; Eisman, P. C.; Sylwestrowicz, H. D. and Mayer, R. L., in Applied Microbiology 9:538-541 (1961), using the ratio determined by the formula:
Qa/QA+Qb/QB=Synergy Index (“SI”)
wherein: QA=concentration of compound A (first component) in percent, acting alone, which produced an end point (MBC of Compound A). Qa =concentration of compound A in percent, in the mixture, which produced an end point. QB=concentration of compound B (second component) in percent, acting alone, which produced an end point (MBC of Compound B). Qb=concentration of compound B in percent, in the mixture, which produced an end point.
When the sum of Qa/QA and Qb/QB is greater than one, antagonism is indicated. […] The lower the SI, the greater is the synergy shown by that particular mixture. The minimum biocidal concentration (MBC) of a microbicide is the lowest concentration tested under a specific set of conditions that provides complete kill of the tested microorganisms.
Synergy tests were-conducted using standard microtiter plate assays with, phosphate buffer containing 35% dipropylene glycol (DPG). In this method, a wide range of combinations of chemicals was tested by conducting high resolution MBC assays of Component (A) in the presence of various concentrations of Component (B). High resolution MBCs were determined by adding varying amounts of microbicide to one column of a microtiter plate and doing subsequent ten-fold dilutions using an automated liquid handling system to obtain a series of closely spaced endpoints. The MBC plate was inoculated one column at a time with the test microorganism. An aliquot of the inoculated well was transferred at 15 seconds to a plate containing a neutralizing agent (D/E Neutralizing Broth), mixed and held for 5 minutes before being transferred to a growth plate containing trypticase soy broth (TSB). The TSB plate was incubated at 37° C. and read for the presence/absence of growth at 24 hours. The lowest level tested that provided complete kill (as evidenced by no growth in the microtitre plate) of the test organisms in 15 seconds is the minimum biocidal concentration (MBC).
The synergy of the combinations of the present invention was determined against a bacterium, Escherichia coli (E. coli—ATCC #10536), at a concentration of approximately 1×10^8 bacteria per mL. This microorganism is representative of natural contaminants in many consumer and industrial applications.

[2] = test system: Staphylococcus aureus (10788 strain); assay: Antimicrobial efficacy in water, 15 seconds contact, mean bacterial survival NMBS by colony count; assay type: cell-based; details: for NMBS: alone, S. Aureus, 15 seconds contact; for MBC (minimum biocidal concentration): single component, against S. Aureus, in water
Protocol: Selected materials were also tested against a representative Gram positive Staphylococcus aureus.
This suspension was separated into equal volumes and centrifuged at 4000 rpm for 15 minutes. Following centrifugation the pellet was re-suspended in saline to give a final concentration of 0.35 OD620 equivalent to about 10^8 cells per millilitre for this particular organism. Here, OD620 indicates the absorbance of a sample in a cuvette of 1.0 cm path length at a wavelength of 620 nm. This bacterial stock was used for assaying against antimicrobial actives (in triplicate).
The following assay describes the testing of 8 materials using 6 dilutions across half of a 96-well micro litre plate (MTP). Using this approach it is possible to assay 16 actives (without replicates) with, one full dilution plate, replicating this set up in two halves of the plate columns, 1-6 and 7-12.
IM solutions of the test actives were prepared in dimethylsulphoxide (DMSO).
This MTP was labeled as the “Screening plate”.
In another MTP, labeled as the “Dilution plate”, 270 μl of D/E neutralising solution from DIFCO Composition was added to column 1. The composition of the neutralising solution was as follows: pancreatic digest of casein, 5.0 g/L; Yeast Extract, 2.5 g/L; Dextrose, 10 g/L, sodium thioglycollate, 1.0 g/L, sodium thiosulphate, 6.0 g/L; sodium bisulphite, 2.5 g/L; Polysorbate 80, 5.0 g/L; lecithin 7.0 g/L; bromocresol purple, 0.02 g/L with a pH is the range 7.6±0.2.
270 μl of tryptone diluent solution was added to all the remaining wells of the Dilution MTP (columns 2-6).
Bacterial stock (30 μl) was then added to the prepared 270 μl of the solution of actives in the Screening Plate and mixed, using a multichannel pipette with 8 tips to aspirate and dispense the same volume of bacterial stock in parallel to 8 wells in rows A-H. After a contact time of 15 seconds, the mixtures were quenched by transferring 30 μl volumes of the mixtures into the 270 μl D/E neutralising solution in the prepared dilution plate, using aspiration to mix. After exactly 5 minutes in the D/E neutralising solution, 30 μl volumes were transferred from column 1 to column 2 of the Dilution MTP and mixed, before transferring further 30 μl volumes from column 2 into column 3. This process was repeated serially diluting the bacteria across the plate to column 6.
30 μl volumes from each well in the Dilution MTP were transferred onto pre-labeled segment of Tryptone Soya Agar (TSA) plates starting from the lowest bacterial concentration (highest dilution, column 6) to the highest bacterial concentration (column 1). The TSA plates were allowed to stand for ca. 2 hours so that the 30 μl inocula spots could dry and the plates were then inverted and incubated overnight at 37° C. before enumerating the bacterial colonies at the labeled dilutions to determine the effects of the actives on bacterial growth.
Mean bacterial survival numbers NMBS (expressed in Log CFU/ml) are obtained by first determining the segment of the TSA plate where the number of bacterial colonies is countable. From the colony number in this segment, NMBS is calculated by the formula: […]
Here, Ncol is the colony count, and DF is the dilution factor taken from the MTP-well corresponding to the TSA plate segment (i.e. DF may range from 1 for the quench, to 6 for the highest dilution). The factor 100/3 is a conversion factor from the volume of the inocula spot to one millilitre.
Every assay test was performed in triplicate.
Thus, a value of NMBS of about 7 corresponds to a count of about 3 colonies from the fifth dilution well, i.e. with DF=5. Such a count of about 7 is generally observed when bacteria are exposed to non-biocidal materials. In case no surviving colonies are observed in any segment of the TSA plate, this is interpreted as complete kill and a value of NMBS=0 is reported.
S. aureus Bacterial stock was prepared as shown below and the antibacterial efficacy of the active was carried out as explained earlier for E. Coli.

CCCc1ccccc1O [2-n-propylphenol] was tested, and the “SI (Synergy Index = Qa/QA + Qb/QB)” value [1] was 1.00, the NMBS ([2]; 0.05% w/v) was 7.40 log CFU/ml and the NMBS ([2]; 0.125% w/v) was 7.06 log CFU/ml. For the same compound, the NMBS ([2]; 0.5% w/v) was 0 log CFU/ml, the NMBS ([2]; […] w/v) was 4.12 log CFU/ml and the “MBC (minimum biocidal concentration)” value [2] was 0.5 % w/v.
For CC(C)=CCC/C(C)=C/CO [(E)-3,7-dimethylocta-2,6-dien-1-ol], the “SI (Synergy Index = Qa/QA + Qb/QB)” value [1] was 1.00, the “Qb: MBC of the second component (B) acting alone (QB)” value ([1]; component alone (Qa = 0), complete kill in 15 seconds) was 0.3 weight % and 0.5 weight % and 0.6 weight % and the NMBS ([2]; 0.5% w/v) was 7.43 log CFU/ml. For the same compound, the NMBS ([2]; 1.0% w/v) was 7.18 log CFU/ml and the “MBC (minimum biocidal concentration)” value [2] was >1.5 % w/v.
